According to ChEMBL document CHEMBL4321794, “Discovery and Optimization of 2-Arylquinazolin-4-ones into a Potent and Selective Tankyrase Inhibitor Modulating Wnt Pathway Activity” (J Med Chem, 2019):

Columns and labels:
[1] = biological target: Poly [ADP-ribose] polymerase 1 (Homo sapiens, UniProt P09874); assay: Inhibition of recombinant human full-length Myc/His-tagged Parp-1 expressed in baculovirus infected Sf21 insect cells assessed as reduction in auto-PARsylation using activated DNA as substrate incubated for 150 mins in presence of NAD and bio-NAD as co-substrate by TR-FRET assay
Poly [ADP-ribose] polymerase 1, sequence (P09874 whole entry): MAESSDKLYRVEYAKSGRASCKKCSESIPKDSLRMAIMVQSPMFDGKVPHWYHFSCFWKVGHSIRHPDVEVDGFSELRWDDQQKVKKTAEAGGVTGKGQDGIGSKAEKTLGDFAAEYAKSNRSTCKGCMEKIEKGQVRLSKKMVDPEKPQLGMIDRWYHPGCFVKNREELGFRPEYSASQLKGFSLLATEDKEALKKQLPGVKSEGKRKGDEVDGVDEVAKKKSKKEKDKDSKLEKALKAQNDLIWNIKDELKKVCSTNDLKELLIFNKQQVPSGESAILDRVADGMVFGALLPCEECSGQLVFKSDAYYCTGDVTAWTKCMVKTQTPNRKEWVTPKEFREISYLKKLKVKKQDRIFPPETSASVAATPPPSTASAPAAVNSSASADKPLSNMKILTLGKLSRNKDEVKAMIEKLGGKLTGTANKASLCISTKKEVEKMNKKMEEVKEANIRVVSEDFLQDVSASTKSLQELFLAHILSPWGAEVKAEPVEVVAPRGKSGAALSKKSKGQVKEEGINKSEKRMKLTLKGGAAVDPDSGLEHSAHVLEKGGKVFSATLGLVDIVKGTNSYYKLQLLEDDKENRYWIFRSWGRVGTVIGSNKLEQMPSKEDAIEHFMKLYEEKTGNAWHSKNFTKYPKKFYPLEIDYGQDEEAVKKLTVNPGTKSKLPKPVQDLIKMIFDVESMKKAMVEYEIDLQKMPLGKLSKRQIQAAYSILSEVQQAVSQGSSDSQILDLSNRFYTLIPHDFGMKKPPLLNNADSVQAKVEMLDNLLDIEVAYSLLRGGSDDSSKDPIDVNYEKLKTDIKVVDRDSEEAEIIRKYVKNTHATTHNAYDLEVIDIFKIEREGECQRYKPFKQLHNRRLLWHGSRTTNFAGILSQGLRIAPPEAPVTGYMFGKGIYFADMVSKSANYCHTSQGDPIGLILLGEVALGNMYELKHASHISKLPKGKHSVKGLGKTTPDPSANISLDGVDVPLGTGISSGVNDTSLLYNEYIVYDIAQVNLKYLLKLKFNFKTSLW

[2] = Apparent permeability across apical to basolateral side in human Caco2 cells at 1 uM after 2 hrs by LC-MS/MS analysis; format: ADME, cell-based; conditions: Caco-2
[3] = biological target: Protein mono-ADP-ribosyltransferase PARP6 (Homo sapiens, UniProt Q2NL67); assay: Inhibition of N-terminal GST-tagged recombinant human full length PARP6 expressed in Baculovirus infected Sf9 cells using biotinylated substrate after 1 hr by chemiluminescence method
Protein mono-ADP-ribosyltransferase PARP6, sequence (Q2NL67 whole entry, the tested form may be a part): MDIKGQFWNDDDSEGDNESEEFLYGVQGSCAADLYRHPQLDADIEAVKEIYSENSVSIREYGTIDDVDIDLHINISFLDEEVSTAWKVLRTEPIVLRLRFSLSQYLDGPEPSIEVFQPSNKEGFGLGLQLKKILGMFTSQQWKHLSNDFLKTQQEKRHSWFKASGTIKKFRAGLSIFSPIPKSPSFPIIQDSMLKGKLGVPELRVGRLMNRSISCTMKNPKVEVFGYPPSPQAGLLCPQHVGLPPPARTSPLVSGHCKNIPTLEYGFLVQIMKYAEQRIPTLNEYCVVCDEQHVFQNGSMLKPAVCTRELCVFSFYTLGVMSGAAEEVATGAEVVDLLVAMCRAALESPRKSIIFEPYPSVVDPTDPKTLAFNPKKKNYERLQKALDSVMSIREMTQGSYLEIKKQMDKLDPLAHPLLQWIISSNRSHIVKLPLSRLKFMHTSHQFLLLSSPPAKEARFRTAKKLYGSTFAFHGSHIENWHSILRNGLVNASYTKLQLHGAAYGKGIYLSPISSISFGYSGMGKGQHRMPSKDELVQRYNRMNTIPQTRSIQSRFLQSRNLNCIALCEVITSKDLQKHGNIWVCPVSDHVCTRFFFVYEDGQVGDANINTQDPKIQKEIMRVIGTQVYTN

[4] = biological target: T1, Protein mono-ADP-ribosyltransferase PARP15 (Homo sapiens, UniProt Q460N3); assay: Inhibition of human N-terminal GST-tagged PARP15 (221 to 444 residues) expressed in Escherichia coli using biotinylated substrate by chemiluminescence method
T1 sequence (Q460N3 whole entry): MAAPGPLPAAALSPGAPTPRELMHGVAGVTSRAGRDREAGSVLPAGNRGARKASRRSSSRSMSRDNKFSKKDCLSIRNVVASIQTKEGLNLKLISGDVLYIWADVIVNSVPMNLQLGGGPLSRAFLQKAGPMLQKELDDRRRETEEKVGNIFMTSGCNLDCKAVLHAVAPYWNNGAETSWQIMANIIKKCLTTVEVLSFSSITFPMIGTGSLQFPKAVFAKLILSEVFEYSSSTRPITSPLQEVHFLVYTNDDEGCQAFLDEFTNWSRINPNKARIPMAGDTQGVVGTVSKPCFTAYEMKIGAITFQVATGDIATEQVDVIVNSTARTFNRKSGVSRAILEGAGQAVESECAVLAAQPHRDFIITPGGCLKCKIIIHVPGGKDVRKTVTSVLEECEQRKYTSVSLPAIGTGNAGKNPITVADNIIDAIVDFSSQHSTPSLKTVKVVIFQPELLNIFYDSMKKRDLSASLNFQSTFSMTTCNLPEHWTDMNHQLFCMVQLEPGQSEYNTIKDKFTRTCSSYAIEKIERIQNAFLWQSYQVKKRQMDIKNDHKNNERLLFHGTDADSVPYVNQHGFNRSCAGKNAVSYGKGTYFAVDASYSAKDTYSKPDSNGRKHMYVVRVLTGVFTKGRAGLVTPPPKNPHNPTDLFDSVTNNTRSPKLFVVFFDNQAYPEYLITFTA

[5] = biological target: T2, Protein mono-ADP-ribosyltransferase TIPARP (Homo sapiens, UniProt Q7Z3E1); assay: Inhibition of N-terminal FLAG-tagged recombinant human PARP7 (400 to 657 residues) expressed in Baculovirus infected Sf9 cells using biotinylated substrate after 1 hr by chemiluminescence method
T2 sequence (Q7Z3E1 whole entry): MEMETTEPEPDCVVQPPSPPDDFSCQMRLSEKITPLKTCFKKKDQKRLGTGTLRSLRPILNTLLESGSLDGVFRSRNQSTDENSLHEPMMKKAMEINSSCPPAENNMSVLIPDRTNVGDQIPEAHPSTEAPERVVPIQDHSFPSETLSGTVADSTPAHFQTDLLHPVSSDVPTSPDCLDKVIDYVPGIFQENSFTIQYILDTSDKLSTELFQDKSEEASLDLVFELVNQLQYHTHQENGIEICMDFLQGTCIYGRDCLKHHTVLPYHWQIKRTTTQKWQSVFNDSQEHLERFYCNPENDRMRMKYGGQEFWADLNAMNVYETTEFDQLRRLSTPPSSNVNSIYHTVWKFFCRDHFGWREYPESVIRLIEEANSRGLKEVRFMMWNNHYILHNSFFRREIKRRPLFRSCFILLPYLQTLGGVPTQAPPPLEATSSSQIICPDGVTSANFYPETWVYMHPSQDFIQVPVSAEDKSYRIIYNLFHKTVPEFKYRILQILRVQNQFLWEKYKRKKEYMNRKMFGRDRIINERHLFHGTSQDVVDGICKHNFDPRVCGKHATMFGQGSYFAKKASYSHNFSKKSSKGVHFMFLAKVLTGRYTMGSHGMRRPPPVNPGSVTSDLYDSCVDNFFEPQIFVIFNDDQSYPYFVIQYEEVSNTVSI

[6] = Intrinsic clearance in mouse hepatocytes assessed per million cells; format: ADME, cell-based, Hepatocyte; conditions: read-out: CLH
[7] = biological target: T3, Protein mono-ADP-ribosyltransferase PARP8 (Homo sapiens, UniProt Q8N3A8); assay: Inhibition of human recombinant PARP8 by chemiluminescence method
T3 sequence (Q8N3A8 whole entry): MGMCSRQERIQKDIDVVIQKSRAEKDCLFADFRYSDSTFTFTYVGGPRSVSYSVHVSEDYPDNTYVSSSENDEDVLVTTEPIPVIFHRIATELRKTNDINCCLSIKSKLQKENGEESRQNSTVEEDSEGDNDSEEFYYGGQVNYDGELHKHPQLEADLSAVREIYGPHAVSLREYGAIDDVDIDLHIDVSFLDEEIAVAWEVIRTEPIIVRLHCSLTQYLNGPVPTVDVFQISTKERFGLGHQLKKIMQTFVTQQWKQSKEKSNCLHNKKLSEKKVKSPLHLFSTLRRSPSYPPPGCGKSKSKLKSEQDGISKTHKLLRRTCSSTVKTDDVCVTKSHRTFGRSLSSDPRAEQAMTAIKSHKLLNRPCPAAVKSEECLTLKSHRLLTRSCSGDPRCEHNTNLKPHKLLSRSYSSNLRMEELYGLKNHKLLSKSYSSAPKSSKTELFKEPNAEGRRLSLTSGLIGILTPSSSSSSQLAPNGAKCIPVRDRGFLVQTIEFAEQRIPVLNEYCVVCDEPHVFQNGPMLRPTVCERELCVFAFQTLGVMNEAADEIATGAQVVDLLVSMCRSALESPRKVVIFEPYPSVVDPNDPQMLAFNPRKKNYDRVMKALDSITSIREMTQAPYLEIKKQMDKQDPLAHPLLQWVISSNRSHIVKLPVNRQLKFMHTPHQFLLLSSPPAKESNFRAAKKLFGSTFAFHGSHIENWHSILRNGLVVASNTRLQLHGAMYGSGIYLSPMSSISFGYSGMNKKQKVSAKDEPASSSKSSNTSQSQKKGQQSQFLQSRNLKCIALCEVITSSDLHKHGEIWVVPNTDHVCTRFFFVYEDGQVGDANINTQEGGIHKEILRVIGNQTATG

[8] = Time at which free-drug concentration exceeds in vitro cellular EC50 for inhibition of tankyrase 1/2 in human DLD1 cells assessed as increase in axin2 accumulation in mouse xenografted with human DLD1 at 10 mg/kg, po administered via gavage; format: organism-based; conditions: in vivo

**Q.** What does the source list for `CC(C)(O)c1ccc(-c2nc3c(F)cc(F)cc3c(=O)[nH]2)cc1`?
**A.** IC50 [1]: 0.782 µM; Papp A→B at 2 h, 1 µM [2]: 40 ×10⁻⁶ cm/s; IC50 [3]: > 10 µM; IC50 [4]: > 10 µM; IC50 [5]: > 10 µM; hepatocyte CLint [6]: 15.2 µL/min/1e6 cells; IC50 [7]: > 10 µM; T>fEC50 [8]: >= 12 hr
